This is an account of results in ChEMBL document CHEMBL1201862, “PubChem BioAssay data set” (2004).

Among the test systems are KM-20L2; DMS-114; DMS-273; DLD-1; SNB-78; HOP-18; M19-MEL; XF498; RXF 631.
Test in all cases: DTP human tumour cell line panel, 48 h

Each structure is given as a SMILES string.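 Method: 48-hour compound exposure of cells in 96-well plates, five concentrations, linear interpolation of endpoints. The concentration for 50% growth inhibition is given as GI50.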 The source made the active and inactive calls. No stated cut-off is given here; in the data, active = GI50 up to about 1.1 µM and inactive = higher.

Take `C=CCn1c(=O)n(CC=C)c(=O)n(CC=C)c1=O`: the GI50 with KM-20L2, in the assay with DMS-114, with DMS-273, in the assay with DLD-1, with SNB-78 and in the assay on HOP-18 was > 100 µM (inactive) throughout. Moreover, the GI50 (usually the concentration that inhibits growth by half) in the assay with M19-MEL is > 100 µM (inactive).
For the molecule `COc1cc2c(cc1OC)C1Cc3ccc(OC)c(OC)c3C[N+]1([O-])CC2` (centres undefined), the GI50 in the assay with KM-20L2, with DLD-1, in the assay on SNB-78 and in the assay on XF498 was > 100 µM (inactive) throughout.
Take `CC(C)N(C(=O)C12C3C4C5(C(=O)O)C(C1C35I)C42C(=O)O)C(C)C` (centres undefined): the GI50 with KM-20L2, in the assay on DMS-114, in the assay with DMS-273, with DLD-1, with SNB-78 and in the assay with M19-MEL was > 100 µM (inactive) each time. For the same molecule, in the assay with RXF 631, the GI50 is > 100 µM (inactive).
As for `COc1ccc2c(c1)[n+]([O-])c(/C(C)=N/NC(=O)CC#N)c[n+]2[O-]`, the GI50 was > 100 µM (inactive) in the assay on KM-20L2; > 100 µM (inactive) in the assay with DMS-114; > 100 µM (inactive) in the assay with DMS-273; 74.6 µM (inactive) with DLD-1; > 100 µM (inactive) in the assay on SNB-78; > 100 µM (inactive) in the assay with HOP-18. Also, the GI50 with M19-MEL, in the assay with XF498 and with RXF 631 was > 100 µM (inactive) throughout.
`COC(=O)c1nn(C(=N)c2ccc(Cl)cc2)c2c1CCCCC2`: the GI50 in the assay with KM-20L2, with DMS-114, in the assay on DMS-273, in the assay with DLD-1, in the assay on SNB-78 and in the assay with M19-MEL was > 100 µM (inactive) throughout.
In the case of `CCOP(=S)(OCC)Oc1ccc2c(c1)OC(=O)C1(Cl)C2(C)C2(Cl)C(=O)Oc3cc(OP(=S)(OCC)OCC)ccc3C12C` (centres undefined), the GI50 with KM-20L2 is 17.1 µM (inactive); in the assay with DMS-114, 14.6 µM (inactive); with DMS-273, 20.3 µM (inactive); with DLD-1 it was 16.8 µM (inactive); in the assay with SNB-78, 19.4 µM (inactive); in the assay on M19-MEL, 18 µM (inactive). Also, in the assay on XF498, the GI50 is 19.2 µM (inactive).
With `O=C1/C(=C/c2ccccc2)CN(C(=O)CCN2CCCC2)C/C1=C\c1ccccc1`, the GI50 was 1.62 µM (inactive) in the assay on KM-20L2; 2.07 µM (inactive) with DMS-114; 1.75 µM (inactive) with DMS-273; 1.46 µM (inactive) with DLD-1; 3.8 µM (inactive) with SNB-78; 3.35 µM (inactive) with HOP-18. Moreover, the GI50 is 1.84 µM (inactive) in the assay with M19-MEL, 5.09 µM (inactive) in the assay on XF498 and 4.08 µM (inactive) with RXF 631.
In the case of `COC1=NCc2ccccc2-c2ccccc21`, the GI50 with DMS-114 is > 100 µM (inactive); in the assay on DMS-273, > 100 µM (inactive); in the assay with DLD-1, > 100 µM (inactive); in the assay with SNB-78 it was > 100 µM (inactive); in the assay with HOP-18, 75.9 µM (inactive); in the assay with XF498 it was > 100 µM (inactive).
Turning to `COC(=O)C1=C(c2cc(OC)c(OC)c(OC)c2)OC(c2ccc(OC)c(OC)c2)C1` (centres undefined), the GI50 in the assay on KM-20L2 is 44.9 µM (inactive); in the assay on DMS-114 it was 28.4 µM (inactive); in the assay with DMS-273, 45.4 µM (inactive); with DLD-1 it was 36.5 µM (inactive); with HOP-18 it was 92.3 µM (inactive); in the assay on M19-MEL it was 43.3 µM (inactive). In addition, the GI50 with XF498 was 68.4 µM (inactive).
As to `CCC(=S)N(C)O`, the GI50 in the assay on KM-20L2 is 21.7 µM (inactive); in the assay on DMS-114 it was 2.22 µM (inactive); in the assay with DLD-1, 24.6 µM (inactive); in the assay with SNB-78, 55.6 µM (inactive); with M19-MEL, 9.77 µM (inactive); with XF498, 1.01 µM (active).
`CN(C)C(=S)/N=c1\ss/c(=N\S(=O)(=O)c2ccccc2)n1N(C)C`: the GI50 in the assay with KM-20L2 is > 100 µM (inactive); in the assay on DMS-114 it was 12.9 µM (inactive); in the assay on DMS-273 it was 92 µM (inactive); in the assay with DLD-1 it was > 100 µM (inactive); in the assay with SNB-78, > 100 µM (inactive); in the assay with HOP-18, > 100 µM (inactive). Also, the figures for the GI50 with M19-MEL and in the assay on RXF 631 were 55.5 µM (inactive) and > 100 µM (inactive), respectively.
With `Oc1ccc2ccccc2c1/N=N/c1ccsc1`, the GI50 in the assay on KM-20L2, in the assay with DMS-114, with DMS-273, in the assay with DLD-1, in the assay with SNB-78 and with HOP-18 was > 100 µM (inactive) in each case. Besides, the GI50 was > 100 µM (inactive) in the assay on M19-MEL and 45.5 µM (inactive) in the assay with RXF 631.
`O=C(n1c2ccccc2c2nnc(S)nc21)C(F)(F)F`: the GI50 in the assay with DMS-114, in the assay on DMS-273, with DLD-1, in the assay with SNB-78, with M19-MEL and with XF498 was > 100 µM (inactive) in each case.
As for `COc1cccc2c1C(=O)c1c(O)c3c(c(O)c1C2=O)CC(O)(C(O)CO)CC3OC1CC(N2CCOCC2)C(O)C(C)O1` (centres undefined), the GI50 was 0.0267 µM (active) in the assay on KM-20L2; 0.018 µM (active) with DMS-114; < 0.001 µM (active) in the assay on DMS-273; < 0.001 µM (active) in the assay on DLD-1; 0.0106 µM (active) in the assay with SNB-78; < 0.001 µM (active) in the assay on HOP-18. Besides, the GI50 in the assay on M19-MEL was 0.0146 µM (active); in the assay on XF498, 0.0168 µM (active); in the assay on RXF 631, < 0.001 µM (active).
